Source: patent US20260216239A1 (Arizona Board of Regents on Behalf of the University of …, priority 2020, published 2026)
Entries after “also recorded” stand apart in the source; their conditions may differ.

Tests used:
[1] = tested on: Bothrops moojeni venom; test: Thrombelastography in human plasma of venom procoagulant activity after isolated exposure of venom to compounds; assay type: biochemical; details: venom 2 μg/ml in plasma; for procoagulant activity of venom: venom exposed ≥5 min in PBS to 1 mM CORM-2, 100 μM RuCl3 or both, vs venom alone
Method: (§1) Thrombelastographic analyses. The volumes of subsequently described plasmatic and other additives summed to a final volume of 360 μl. Samples were composed of 320 μl of plasma; 16.4 μl of PBS, 20 μl of 200 mM CaCl2), and 3.6 μl of PBS or venom mixture, which were pipetted into a disposable cup in a Thrombelastograph® hemostasis system (Model 5000, Haemonetics Inc., Braintree, MA, USA) at 37° C., and then rapidly mixed by moving the cup up against and then away from the plastic pin five times. The following viscoelastic parameters described previously (see, Nielsen V G (2019) J Thromb Thrombolysis 47, 73-79; Gessner G, et al., (2017) Eur J Pharmacol 815, 33-41; Nielsen V G, Wagner M T, Frank N (2020) Int J Mol Sci 21, 2082; Lazić D, Arsenijević A, Puchta R, Bugarčić ŽD, Rilak A (2016) Dalton Trans 45, 4633; Hanif M, et al., (2017) ChemPlusChem 82, 841-847) were measured: time to maximum rate of thrombus generation (TMRTG): this is the time interval (minutes) observed prior to maximum speed of clot growth; maximum rate of thrombus generation (MRTG): this is the maximum velocity of clot growth observed (dynes/cm^2/second); and total thrombus generation (TTG, dynes/cm^2), the final viscoelastic resistance observed after clot formation.
(§2) B. moojeni. This venom was exposed to 0 or 1 mM CORM-2 in the presence of 0 or 100 μM RuCl3 in PBS for at least 5 minutes at room temperature prior to placement into plasma followed immediately with commencement of thrombelastographic analysis. The final concentration of this venom in plasma was 2 μg/ml.
(§3) Given the aforementioned, the experimental conditions utilized were: 1) V condition—venom in PBS; 2) Ru(II) condition—venom exposed to CORM-2; 3) Ru(III) condition—venom exposed to RuCl3; 4) Ru(II+III) condition—venom exposed to CORM-2 and RuCl3 simultaneously. After the 5 minute period at room temperature, 3.6 μl of one of these solutions was added to the plasma sample in the plastic thrombelastograph cup.
(§4) The volumes of subsequently described plasmatic and other additives summed to a final volume of 360 μl. Samples were composed of 320 μl of plasma; 16.4 μl of PBS, 20 μl of 200 mM CaCl2), and 3.6 μl of PBS or venom mixture, which were pipetted into a disposable cup in a Thrombelastograph® hemostasis system (Model 5000, Haemonetics Inc., Braintree, MA, USA) at 37° C., and then rapidly mixed by moving the cup up against and then away from the plastic pin five times. The following viscoelastic parameters described previously (see, Nielsen, V. G. J Thromb Thrombolysis 2019, 47, 73-79; Gessner, G.; et al., Eur J Pharmacol 2017, 815, 33-41; Nielsen, V. G.; Wagner, M. T.; Frank, N. Int J Mol Sci 2020, 21, 2082; Lazid, D.; et al., Dalton Trans 2016, 45, 4633; Hanif, M.; et al., ChemPlusChem 2017, 82, 841-847) were measured: time to maximum rate of thrombus generation (TMRTG): this is the time interval (minutes) observed prior to maximum speed of clot growth; maximum rate of thrombus generation (MRTG): this is the maximum velocity of clot growth observed (dynes/cm2/second); and total thrombus generation (TTG, dynes/cm2), the final viscoelastic resistance observed after clot formation.
as §2, with “CORM-2 or CORM-3” for “CORM-2”, “analysis. This venom was also exposed to 0 or 1 mM CORM-2 in the presence of 0 or 100 μM carboplatin in another series of experiments.” for “analysis.”
Given the aforementioned, the experimental conditions utilized were: 1) V condition—venom in PBS; 2) Ru(II) condition—venom exposed to CORM-2 or CORM-3; 3) Ru(III) condition—venom exposed to RuCl3; 4) Ru(II+III) condition—venom exposed to CORM-2 or CORM-3 and RuCl3 simultaneously; 5) Pt(II) condition—venom exposed to carboplatin; and 6) Pt+Ru condition—venom exposed to carboplatin and CORM-2.

[2] = tested on: Calloselasma rhodostoma venom; test: as above; assay type: biochemical; details: venom 5 μg/ml in plasma
Method: as §1
C. rhodostoma. […] The final concentration of this venom in plasma was 5 μg/ml.
as §3, §4
C. rhodostoma. […] This venom was also exposed to 0 or 100 μM CORM-2 in the presence of 0 or 100 μM carboplatin in another series of experiments. The final concentration of this venom in plasma was 5 μg/ml.

[3] = 100 μM carboplatin, 1 mM CORM-2 or both
[4] = 1 mM CORM-2, 100 μM RuCl3 or both
[5] = 50 μM CORM-2, 50 μM RuCl3 or both
[6] = 100 μM carboplatin, 100 μM CORM-2 or both
[7] = venom exposed ≥5 min in PBS to 50 μM CORM-2, 50 μM RuCl3 or both
[8] = 1 mM CORM-3, 100 μM RuCl3 or both
[9] = venom exposed ≥5 min in PBS to 1 mM CORM-3, 100 μM RuCl3 or both
[10] = 100 μM CORM-3, 100 μM RuCl3 or both

[C-]#[O+].[C-]#[O+].[C-]#[O+].[C-]#[O+].[C-]#[O+].[C-]#[O+].[Cl][Ru][Cl].[Cl][Ru][Cl] [CORM-2, tricarbonyldichlororuthenium(II) dimer]
maximum rate of thrombus generation (MRTG) [1, 3]: decreased
time to maximum rate of thrombus generation (TMRTG) [1, 3]: significantly increased
maximum rate of thrombus generation (MRTG) [1, 4]: decrease
time to maximum rate of thrombus generation (TMRTG) [1, 4]: prolonged; also recorded: significant increase
procoagulant activity of venom [1]: significant loss of activity; also recorded: inhibition of procoagulant activity
maximum rate of thrombus generation (MRTG) [2, 5]: decrease
time to maximum rate of thrombus generation (TMRTG) [2, 5]: increased; also recorded: significant increase
maximum rate of thrombus generation (MRTG) [2, 6]: decrease
time to maximum rate of thrombus generation (TMRTG) [2, 6]: significant increase
total thrombus generation (TTG) [2, 6]: decrease
procoagulant activity of venom [2, 7]: significantly decreased; also recorded: procoagulant activity inhibition

Tricarbonylchloro(glycinato)ruthenium [CORM-3]
maximum rate of thrombus generation (MRTG) [1, 8]: did not significantly change
total thrombus generation (TTG) [1, 8]: significantly increased
time to maximum rate of thrombus generation (TMRTG) [1, 9]: significant increase
procoagulant activity of venom [2, 10]: no significant effect

[Cl][Ru]([Cl])[Cl] [RuCl3, ruthenium(III) chloride]
maximum rate of thrombus generation (MRTG) [1, 8]: did not significantly change
total thrombus generation (TTG) [1, 8]: significantly increased
procoagulant activity of venom [1]: no significant effect; also recorded: did not significantly diminish
time to maximum rate of thrombus generation (TMRTG) [1, 9]: significant increase
maximum rate of thrombus generation (MRTG) [2, 5]: decrease
time to maximum rate of thrombus generation (TMRTG) [2, 5]: increase
maximum rate of thrombus generation (MRTG) [2, 10]: decrease
time to maximum rate of thrombus generation (TMRTG) [2, 10]: significant increase
procoagulant activity of venom [2, 7]: significantly diminished
